According to US12472187B2, “Texaphyrin-Pt(IV) conjugates and compositions for use in overcoming platinum resistance” (BOARD OF REGENTS, THE UNIVERSITY OF TEXAS SYSTEM, priority 2014, dated 2025):

How the values were obtained:
2780CP cells [1] = conditions: cisplatin resistant 2780CP cells; data from Arambula, et al., 2012; cited from earlier work
A2780 cells = conditions: platinum sensitive A2780 cells; data from Arambula, et al., 2012; cited from earlier work
2780CP cells [2] = assay: MTT (tetrazolium dye reduction) proliferation assay, cisplatin resistant 2780CP cells; format: cell-based, human; conditions: ratio of IC50 in 2780CP to A2780; rows for cisplatin and 2 rest on cited IC50
Protocol: The A2780 line was established from a patient's biopsy prior to initiation of any chemotherapeutic regimen (Godwin, et al., 1992). The resistant cell line, 2780CP, used in this study, was established from A2780 cells, as described by Siddik, et al., 1998. The two cell lines have wild-type p53 genotype and/or function. Cells were grown in RPMI containing 10% fetal calf serum and antibiotics (100 μg/mL streptomycin and 100 U/mL penicillin).
The proliferation of exponential phase cultures of A2780 and 2780CP cells was assessed by tetrazolium dye reduction (Mosmann, 1983, which is incorporated herein by reference). […] After a total incubation time of 6 days at 37° C., 50 μL of a stock solution at 3 mg/ml of the tetrazolium dye, 3-(4,5-dimethylthiazol-2-yl)-2,5-diphenyltetrazolium bromide (MTT, Sigma Chemical) were added to each well, the plates incubated at 37° C. for 4 hours, whereupon the medium was removed, the formazan product dissolved in DMSO (50-100 μL) and absorbance values at 570 nm was measured using a microplate reader (Molecular Devices, Sunnyvale, CA). Absorbance values were corrected for background and then normalized to wells containing untreated cells to allow plate-to-plate comparisons. […]
The anti-proliferative effects of conjugates 4 and 5 were assessed with platinum sensitive human ovarian A2780 cells and the isogenic cisplatin resistant 2780CP cell line. […]

A2780 cancer cells = assay: MTT antiproliferative assay of Pt(IV), MGd and MGd+Pt(IV) on A2780 cancer cells; format: cell-based; conditions: agent alone, read-out: IC50 (growth inhibition), single agent
Protocol: A2780 cancer cells were incubated (37° C., 5% CO2 atmosphere, dark) in 96-wells plates at a concentration of 600 cells/well, in a culture medium containing 10% fetal bovine serum and supplemented with penicillin and streptomycin. After 15 h, drugs (Pt(IV), MGd, MGd+Pt(IV)) were added to cells (gradient of concentration, from 0 to 200 μM, 3-fold dilutions) and plates were incubated for five more days using the above conditions. After five days, MTT dye was added in each well (0.15 mg/well) and plates were left for 4 hours in the incubator. Then, supernatant was carefully removed and 50 μL of DMSO were added to dissolve MTT purple formazan crystals. The absorbance was read at 570 nm using a plate reader.

IC50 (A2780 cancer cells) | Compound | IC50 (2780CP cells [1]) | IC50 (A2780 cells) | Resistance factor = IC50(2780CP)/IC50(A2780) (2780CP cells [2])
 | N.N.[Cl][Pt][Cl] [Cisplatin] | 7.3 µM | 330 nM | 18.25
78 µM | CC(=O)[O-].CC(=O)[O-].CCc1c(CC)c2cc3nc(cnc4cc(OCCOCCOCCOC)c(OCCOCCOCCOC)cc4ncc4nc(cc1[n-]2)C(CCCO)=C4C)C(C)=C3CCCO.[Gd+3] [Compound 1, motexafin gadolinium] |  |  | 
